From PMC10091362 (Lab on a Chip, 2023)

Columns and labels:
beta-galactosidase = beta-galactosidase (Escherichia coli, UniProt P00722); test: droplet microfluidic steady-state Michaelis–Menten kinetics; type: biochemical
purified protein = substrate: CC(=O)N1c2ccc(O)cc2Oc2cc(O)ccc21; test: purified protein; conditions: H2O2 (co-substrate)

beta-galactosidase, sequence (P00722 2-1024): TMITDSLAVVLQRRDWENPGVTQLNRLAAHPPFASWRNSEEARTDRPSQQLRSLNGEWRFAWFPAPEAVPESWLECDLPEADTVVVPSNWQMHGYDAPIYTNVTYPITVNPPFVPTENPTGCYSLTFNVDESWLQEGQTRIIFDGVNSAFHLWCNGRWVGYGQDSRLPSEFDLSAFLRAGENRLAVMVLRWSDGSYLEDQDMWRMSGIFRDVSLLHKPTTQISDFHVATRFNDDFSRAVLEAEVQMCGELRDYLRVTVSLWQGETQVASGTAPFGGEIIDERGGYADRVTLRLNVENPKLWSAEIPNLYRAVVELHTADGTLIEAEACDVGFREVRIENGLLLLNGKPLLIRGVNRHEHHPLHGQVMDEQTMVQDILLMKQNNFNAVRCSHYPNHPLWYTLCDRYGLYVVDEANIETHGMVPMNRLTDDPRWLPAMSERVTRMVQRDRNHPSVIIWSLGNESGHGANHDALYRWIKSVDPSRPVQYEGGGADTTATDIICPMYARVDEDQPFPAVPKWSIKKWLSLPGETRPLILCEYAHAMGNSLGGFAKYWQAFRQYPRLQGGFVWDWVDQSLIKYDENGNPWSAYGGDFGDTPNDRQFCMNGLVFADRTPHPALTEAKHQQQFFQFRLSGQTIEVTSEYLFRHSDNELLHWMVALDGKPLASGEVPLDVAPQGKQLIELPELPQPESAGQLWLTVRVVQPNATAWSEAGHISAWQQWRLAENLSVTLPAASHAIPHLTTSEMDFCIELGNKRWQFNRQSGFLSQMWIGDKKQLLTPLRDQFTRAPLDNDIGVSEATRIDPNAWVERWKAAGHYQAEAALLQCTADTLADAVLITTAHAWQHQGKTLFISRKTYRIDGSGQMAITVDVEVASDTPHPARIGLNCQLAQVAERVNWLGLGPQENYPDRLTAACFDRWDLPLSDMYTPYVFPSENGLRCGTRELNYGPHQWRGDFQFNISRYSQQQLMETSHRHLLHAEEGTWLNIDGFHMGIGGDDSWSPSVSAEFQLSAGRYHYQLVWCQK

In the case of O=C1OC2(c3ccc(O[C@@H]4O[C@H](CO)[C@H](O)[C@H](O)[C@H]4O)cc3Oc3cc(O[C@@H]4O[C@H](CO)[C@H](O)[C@H](O)[C@H]4O)ccc32)c2ccccc21 [Fluorescein di-beta-D-galactopyranoside], the Km (beta-galactosidase) is reported as 19.8 ± 1.4 µM.

O=c1ccc2nc3ccc(O[C@@H]4O[C@H](CO)[C@H](O)[C@H](O)[C@H]4O)cc3oc-2c1 [resorufin beta-D-galactopyranoside] was tested, and the Km (beta-galactosidase) was 408 ± 140 µM.

B1: horseradish peroxidase (Armoracia rusticana) (protein)
chain: QLTPTFYDNSCPNVSNIVRDTIVNELRSDPRIAASILRLHFHDCFVNGCDASILLDNTTSFRTEKDAFGNANSARGFPVIDRMKAAVESACPRTVSCADLLTIAAQQSVTLAGGPSWRVPLGRRDSLQAFLDLANANLPAPFFTLPQLKDSFRNVGLNRSSDLVALSGGHTFGKNQCRFIMDRLYNFSNTGLPDPTLNTTYLQTLRGLCPLNGNLSALVDFDLRTPTIFDNKYYVNLEEQKGLIQSDQELFSSPNATDTIPLVRSFANSTQTFFNAFVEAMDRMGNITPLTGTQGQIRLNCRVVNSNS
With B1 the Km (purified protein) was 20 ± 1.8 µM.
